Test results: patent publication US10351519B2, “Sulfamate derivative compounds, processes for preparing them and their uses” (BIO-PHARM SOLUTIONS CO., LTD., priority 2016, dated 2019)

Columns and labels:
Format in all cases: in vivo
Sprague-Dawley rats = assay: Antiallodynic activity on Complete Freund's Adjuvant (CFA)-induced inflammatory pain model; settings: intraperitoneally; for ED50 / response vs control in vivo at 50 mg/kg: Rattus norvegicus, ip; for ED50: at peak time; for response vs control in vivo at 50 mg/kg: read-out: CFA-induced pain model efficacy %
Method: Male, Sprague-Dawley rats (210-250 g, Nara Bio, Korea) were habituated for 1 week before CFA injection and allowed free access to food and water throughout the experimentation. Room temperature and humidity were maintained at 24±2 and 50±10%, respectively.
CFA-induced inflammatory pain was induced by the procedure of Nagakura et al. (2003) and Gregory P. et al. (2010) with minor modifications. CFA (sigma, USA) was injected in the right plantar with a 100 ul volume under gaseous anesthesia with isoflurane. Sham controls were injected with 100 ul of saline and preparation of the vehicles without compound in the vehicle control group. Tactile sensitivity (Mechanical allodynia) was evaluated using von Frey monofilaments before and after treatment, and the animals were included in the study only if the withdrawal threshold value was less than 4 g. One week after surgery, CFA-infused treatment animals (n=4-6), sham-operated animals (n=12), and vehicle control animals (n=17) were tested for tactile sensitivity with von Frey monofilaments 3 trials for each animal. All Animals were placed in a stainless steel mesh chamber and habituated for 30 min in the test box. The tactile sensitivity for ipsilateral hind paw was measured using the up-and-down method (Dixon, 1980) with seven von Frey monofilaments (0.4, 1, 2, 4, 6, 8, and 15 g) to 3 trials. Tactile sensitivity test was followed by Dixon's method (Dixon, 1980). The 50% paw withdrawal threshold for each paw was calculated using the following formula: [Xth] log=[vFr] log+ky where [vFr] is the force of the last von Frey used, k=0.2249 which is the average interval (in log units) between the von Frey monofilaments, and y is a value that depends upon the pattern of withdrawal responses (Dixon, 1980).
Antiallodynic effect of compound was evaluated at the dose of 10-60 mg/kg (n=4-6), intraperitoneally administrated in a volume of 5 ul/g bw in a vehicle of 30% (v/v) PEG or 20% (v/v) Tween 80. The test was performed peak time of efficacy (0.5 or 1 hr) after compound administration.
The relative values compared to the sham (% control) were calculated and shown in Table 4, which show an antiallodynic effect of Compound 1 on CFA-induced pain model in rats.

SD rats [1] = assay: Anti-epilepsy activity, MES test, rat; settings: for ED50: Rattus norvegicus, po
Method: In the MES test (Ref., G. Villetti et al. Neuropharmacology 40 (2001) 866-878), an electrical stimulus (mice: 50 mA, 60 Hz, 0.2 sec, and rats: 150 mA, 60 Hz, 0.2 sec in the test animal) supplied by an 11A Shocker (IITC Life Science Company) was delivered through corneal electrodes. All mice or rats assigned to any electroshock at peak time were treated with each test compound sample which was dissolved in 30% PEG 400 or 20% tween 80 prepared by saline solvent applied orally before the test. […] Three doses of the test sample were administered orally to 9-18 animals (3-6 mice per dose) for evaluating the respective doses at which 50% of the animals were protected from seizure (ED50). The ED50 value (median effective dose) was calculated by Litchfield and Wicoxon log-probit method which is a dose-response relationship. Experimental animals, male ICR mice and male SD rats, were purchased from OrientBio, Samtako, or Nara Biotech, Korea, and housed in cages (4-5 mice or 3 rats per cage) for 4-5 days. The range of mice body weight was between 19 and 25 grams and range of rats body weight was between 100 and 130 grams.

SD rats [2] = assay: Anti-epilepsy activity, scPTZ test, rat; settings: for ED50: Rattus norvegicus, ip
Description: (§1) In this experiment, each test compound sample was formulated as described in Biological Experimental Example I, and administered intraperitoneally to the test animals (mice; ICR or Rat; SD); Experimental animals, male ICR mice and male SD rats, were purchased from OrientBio or Nara biotech, Korea, and housed 4-5 mice per a cage for 4-5 days. The range of mice body weight was used between 19 and 26 grams and range of rats body weight was used between 100 and 130 grams. After Peak time (0.5, 1, 2 and 4 hr) from the administration, PTZ (Pentylenetetrazol) was administered subcutaneously in the concentration capable of inducing 97% intermittent convulsions (mice: 76-110 mg/kg·bw, 10 μl/g, or rats: 79-110 mg/kg·bw, 2 μl/g). If clonic seizure was not observed for at least 30 minutes in the PTZ administered animal, it can be considered that the test compound has anti-epilepsy activity. The median effective dose (ED50) is determined using 6 animals per a concentration (total three different concen-trations), and calculated by Litchfield and Wicoxon log-probit method which is a dose-response relationship.

ICR mice [3] = assay: Chemical induced seizure model (PIC, picrotoxin); settings: for ED50: Mus musculus, ip
Method: Picrotoxin (PIC) were used to induce the behavioral seizures in the experiments. Male ICR mice (purchased from Orient Bio Inc. Korea) of body weight 19-26 g (mice) were used for these studies. The test materials were administered intraperitoneal (ip) route in a volume of 10 ul/g (mice) weight in mice, respectively. Pharmacological effects of the test materials were evaluated to compared test groups (n=6) with a control group (n=6). Control group was administrated vehicle, only. The peak time was determined by administration of test material's random dose for 0.5, 1, 2, 4 hour. The time that the most protect was defined as a peak time and ED50 was determined by other dose administration at the peak time. Chemical (PIC) was dissolved in 0.9% saline and administered subcutaneously (s.c.) at its CD97 (convulsive dose 97%), the dose of Chemical (PIC) that produced clonic seizures in 97% into a loose fold of skin in the midline of the neck in a volume of 10 ul/g (mice) body weight. The animals were then transferred to observation cages and observed continuously for 45 min (PIC). Clonic seizure was elicited in approximately 97% of control group. Protection was defined as a complete absence of clonic seizure over the 45-min observation period. The effective dose of compound necessary to protect against generalized convulsive seizures to 50% of controls (i.e. ED50) was determined by log probit analysis using SPSS software program (SPSS Inc.). (Reference; White H. S., J. H. Woodhead, K. S. Wilcox, J. P. Stables, H. J. Kupferberg, and H. H. Wolf. General Principles; Discovery and Preclinical De-velopment of Antiepileptic Drugs. In: R. H. Levy, R. H. Mattson, B. S. Meldrum, and E. Perucca, eds. Antiepileptic Drugs, 5th Ed. Lippincott Williams & Wilkins, Philadelphia 2002: pp. 36-48.) The obtained results are shown in following Table 10.

ICR mice [4] = assay: Anti-epilepsy activity, scPTZ test, mouse; settings: for ED50: ip
Description: as §1

Structure (SMILES) | ED50 (Sprague-Dawley rats) [mg/kg] | CFA-induced pain model Peak Time (Sprague-Dawley rats) [h] | MES test (po) Peak time (SD rats [1]) | ED50 (SD rats [1]) [mg/kg] | scPTZ test (ip) Peak time (SD rats [2]) | ED50 (SD rats [2]) [mg/kg] | PIC(ip) Peak Time (ICR mice [3]) [h] | ED50 (ICR mice [3]) [mg/kg] | scPTZ test (ip) Peak time (ICR mice [4]) [h] | ED50 (ICR mice [4]) [mg/kg] | response vs control in vivo at 50 mg/kg (Sprague-Dawley rats) [%] | scPTZ test (ip) efficacy % (SD rats [2]; 40 mg/kg) [%]
C[C@H](OS(N)(=O)=O)[C@@H](O)c1c(Cl)cccc1Cl [Example 7, (1S, 2S)-1-(2,6-dichlorophenyl)-1-hydroxypropan-2-yl sulfamate] | 31.9 | 1 | (2 h) | 23.5 | (0.5 h) | 10 | 0.5 | 28.5 | 0.5 | 8.6 |  | 
COCO[C@H](c1ccccc1Cl)[C@@H](C)OS(N)(=O)=O [Example 70, (1R, 2R)-1-(2-chlorophenyl)-1-(methoxymethoxy)propan-2-yl sulfamate] |  | 0.5 | (1 h) | 46.6 | (1 h) | 36 |  |  | 2 | 50.2 | 23.7 | 
C[C@@H](OS(N)(=O)=O)[C@H](O)c1ccccc1Cl [Example 2, (1R, 2R)-1-(2-chlorophenyl)-1-hydroxypropan-2-yl sulfamate] |  | 1 | (2 h) | 5 | 1 h |  | 1 | 24.1 | 1 | 18.2 | 23 | 33.3
C[C@@H](OS(N)(=O)=O)[C@H](O)c1c(Cl)cccc1Cl [Example 8, (1R, 2R)-1-(2,6-dichlorophenyl)-1-hydroxypropan-2-yl sulfamate] | 52.7 | 0.5 | (1 h) | 24 | (1 h) | 15.3 | 1 | 73.9 | 1 | 13.5 |  | 
